Laboratory results published in PubChem BioAssay (NCI).
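Assay format: 96-well plates, 48-hour exposure. Here, GI50 denotes the concentration required for 50% inhibition of growth. The concentration for full growth arrest is given as TGI.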

Key:
Assay in all cases: growth of human tumour cells (NCI), 48 h
A498 renal = test system: A498 renal
SK-MEL-5 melanoma = test system: SK-MEL-5 melanoma
HT29 colon = test system: HT29 colon
SK-MEL-2 melanoma = test system: SK-MEL-2 melanoma
NCI-H226 lung = test system: NCI-H226 lung
ACHN renal = test system: ACHN renal
OVCAR-8 ovarian = test system: OVCAR-8 ovarian
CCRF-CEM leukemia = test system: CCRF-CEM leukemia
NCI/ADR-RES ovarian = test system: NCI/ADR-RES ovarian
SF-539 CNS = test system: SF-539 CNS
MOLT-4 leukemia = test system: MOLT-4 leukemia
NCI-H522 lung = test system: NCI-H522 lung
SF-268 CNS = test system: SF-268 CNS
BT-549 breast = test system: BT-549 breast
KM12 colon = test system: KM12 colon
HOP-62 NSCLC = test system: HOP-62 NSCLC
COLO 205 colon = test system: COLO 205 colon
RPMI-8226 leukemia = test system: RPMI-8226 leukemia
MCF7 breast = test system: MCF7 breast
SN12C renal = test system: SN12C renal
TK-10 renal = test system: TK-10 renal
UACC-257 melanoma = test system: UACC-257 melanoma
PC-3 prostate = test system: PC-3 prostate
NCI-H460 lung = test system: NCI-H460 lung
LOX IMVI melanoma = test system: LOX IMVI melanoma
SNB-19 CNS = test system: SNB-19 CNS
NCI-H23 lung = test system: NCI-H23 lung
HCT-116 colon = test system: HCT-116 colon
T-47D breast = test system: T-47D breast
SNB-75 CNS = test system: SNB-75 CNS
A549 NSCLC = test system: A549 NSCLC
OVCAR-4 ovarian = test system: OVCAR-4 ovarian
UO-31 renal = test system: UO-31 renal
SK-MEL-28 melanoma = test system: SK-MEL-28 melanoma
HL-60(TB) leukemia = test system: HL-60(TB) leukemia
SR leukemia = test system: SR leukemia
U251 CNS = test system: U251 CNS
K-562 leukemia = test system: K-562 leukemia
CAKI-1 renal = test system: CAKI-1 renal
MALME-3M melanoma = test system: MALME-3M melanoma
RXF 393 renal = test system: RXF 393 renal
HOP-92 NSCLC = test system: HOP-92 NSCLC
786-0 renal = test system: 786-0 renal
SW-620 colon = test system: SW-620 colon
HCC-2998 colon = test system: HCC-2998 colon
OVCAR-3 ovarian = test system: OVCAR-3 ovarian
SF-295 CNS = test system: SF-295 CNS
IGROV1 ovarian = test system: IGROV1 ovarian
UACC-62 melanoma = test system: UACC-62 melanoma
M14 melanoma = test system: M14 melanoma
MDA-MB-435 = test system: MDA-MB-435
HS 578T breast = test system: HS 578T breast
DU-145 prostate = test system: DU-145 prostate
HCT-15 colon = test system: HCT-15 colon
SK-OV-3 ovarian = test system: SK-OV-3 ovarian
MDA-MB-231 breast = test system: MDA-MB-231 breast
OVCAR-5 ovarian = test system: OVCAR-5 ovarian

Work on CCN(CC)CCCCNc1ncc2cc(-c3cc(OC)cc(OC)c3)c(NC(=O)NC(C)(C)C)nc2n1 yielded a GI50 (A498 renal) of 0.0209 µM, a TGI (A498 renal) of 0.097 µM and a GI50 (SK-MEL-5 melanoma) of 6.19 µM. For the same compound, the TGI (SK-MEL-5 melanoma) was 18 µM, the GI50 (HT29 colon) was 3.31 µM and the TGI (HT29 colon) was 13.9 µM. The GI50 (SK-MEL-2 melanoma) was 3.67 µM, the TGI (SK-MEL-2 melanoma) was 13 µM and the GI50 (NCI-H226 lung) was 2.57 µM. The TGI (NCI-H226 lung) was 24.8 µM, the GI50 (ACHN renal) was 3.92 µM and the TGI (ACHN renal) was 16.4 µM. It also gave a GI50 (OVCAR-8 ovarian) of 5.53 µM, a TGI (OVCAR-8 ovarian) of 26.6 µM and a GI50 (CCRF-CEM leukemia) of 3.96 µM. The TGI (CCRF-CEM leukemia) was 66.1 µM, the GI50 (NCI/ADR-RES ovarian) was 8.01 µM and the TGI (NCI/ADR-RES ovarian) was 27.3 µM. The GI50 (SF-539 CNS) was 1.99 µM, the TGI (SF-539 CNS) was 7.16 µM and the GI50 (MOLT-4 leukemia) was 3.66 µM. It also gave a TGI (MOLT-4 leukemia) of 19.4 µM, a GI50 (NCI-H522 lung) of 6.45 µM and a TGI (NCI-H522 lung) of 18.4 µM. It also gave a GI50 (SF-268 CNS) of 5.47 µM, a TGI (SF-268 CNS) of 21.1 µM and a GI50 (BT-549 breast) of 2.15 µM. The TGI (BT-549 breast) was 18 µM, the GI50 (KM12 colon) was 9.65 µM and the TGI (KM12 colon) was 23 µM. For the same compound, the GI50 (HOP-62 NSCLC) was 12.1 µM, the TGI (HOP-62 NSCLC) was 27.2 µM and the GI50 (COLO 205 colon) was 8.08 µM. For the same compound, the TGI (COLO 205 colon) was 22.1 µM, the GI50 (RPMI-8226 leukemia) was 4.92 µM and the TGI (RPMI-8226 leukemia) was 27.9 µM. It also gave a GI50 (MCF7 breast) of 5.35 µM, a TGI (MCF7 breast) of 23.1 µM and a GI50 (SN12C renal) of 3.52 µM. The TGI (SN12C renal) was 15.6 µM, the GI50 (TK-10 renal) was 6.77 µM and the TGI (TK-10 renal) was 21.1 µM. The GI50 (UACC-257 melanoma) was 1.78 µM, the TGI (UACC-257 melanoma) was 3.68 µM and the GI50 (PC-3 prostate) was 7.3 µM. For the same compound, the TGI (PC-3 prostate) was 26 µM, the GI50 (NCI-H460 lung) was 6.85 µM and the TGI (NCI-H460 lung) was 20.8 µM. The GI50 (LOX IMVI melanoma) was 5.34 µM, the TGI (LOX IMVI melanoma) was 18.8 µM and the GI50 (SNB-19 CNS) was 13.7 µM. The TGI (SNB-19 CNS) was 28.7 µM, the GI50 (NCI-H23 lung) was 11.1 µM and the TGI (NCI-H23 lung) was 30.1 µM. The GI50 (HCT-116 colon) was 4.13 µM, the TGI (HCT-116 colon) was 16.3 µM and the GI50 (T-47D breast) was 10.8 µM. It also gave a TGI (T-47D breast) of 29.3 µM, a GI50 (SNB-75 CNS) of 0.372 µM and a TGI (SNB-75 CNS) of 13.1 µM. It also gave a GI50 (A549 NSCLC) of 7.84 µM, a TGI (A549 NSCLC) of 23 µM and a GI50 (OVCAR-4 ovarian) of 1.84 µM. For the same compound, the TGI (OVCAR-4 ovarian) was 25.5 µM, the GI50 (UO-31 renal) was 1.37 µM and the TGI (UO-31 renal) was 15.5 µM. For the same compound, the GI50 (SK-MEL-28 melanoma) was 4.67 µM, the TGI (SK-MEL-28 melanoma) was 12.4 µM and the GI50 (HL-60(TB) leukemia) was 1.99 µM. For the same compound, the TGI (HL-60(TB) leukemia) was 4.8 µM, the GI50 (SR leukemia) was 2.11 µM and the TGI (SR leukemia) was 5.68 µM. For the same compound, the GI50 (U251 CNS) was 2.77 µM, the TGI (U251 CNS) was 17.5 µM and the GI50 (K-562 leukemia) was 2.95 µM. For the same compound, the TGI (K-562 leukemia) was 9.37 µM, the GI50 (CAKI-1 renal) was 3.99 µM and the TGI (CAKI-1 renal) was 17 µM. It also gave a GI50 (MALME-3M melanoma) of 1.96 µM, a TGI (MALME-3M melanoma) of 4.17 µM and a GI50 (RXF 393 renal) of 1.63 µM. The TGI (RXF 393 renal) was 11.4 µM, the GI50 (HOP-92 NSCLC) was 2.11 µM and the TGI (HOP-92 NSCLC) was 18.4 µM. It also gave a GI50 (786-0 renal) of 5.42 µM, a TGI (786-0 renal) of 19.3 µM and a GI50 (SW-620 colon) of 8.15 µM. For the same compound, the TGI (SW-620 colon) was 23 µM, the GI50 (HCC-2998 colon) was 12.7 µM and the TGI (HCC-2998 colon) was 26 µM. For the same compound, the GI50 (OVCAR-3 ovarian) was 11.9 µM, the TGI (OVCAR-3 ovarian) was 25 µM and the GI50 (SF-295 CNS) was 3.59 µM. It also gave a TGI (SF-295 CNS) of 10.3 µM, a GI50 (IGROV1 ovarian) of 3.64 µM and a TGI (IGROV1 ovarian) of 16.3 µM. It also gave a GI50 (UACC-62 melanoma) of 4.2 µM, a TGI (UACC-62 melanoma) of 15.1 µM and a GI50 (M14 melanoma) of 3.1 µM. It also gave a TGI (M14 melanoma) of 9.65 µM, a GI50 (MDA-MB-435) of 4.87 µM and a TGI (MDA-MB-435) of 18.2 µM. It also gave a GI50 (HS 578T breast) of 4.72 µM, a TGI (HS 578T breast) of 28 µM and a GI50 (DU-145 prostate) of 8.08 µM. For the same compound, the TGI (DU-145 prostate) was 22.9 µM, the GI50 (HCT-15 colon) was 3.63 µM and the TGI (HCT-15 colon) was 17.5 µM. It also gave a GI50 (SK-OV-3 ovarian) of 4.91 µM, a TGI (SK-OV-3 ovarian) of 18.2 µM and a GI50 (MDA-MB-231 breast) of 5.89 µM. The TGI (MDA-MB-231 breast) was 17 µM, the GI50 (OVCAR-5 ovarian) was 15.5 µM and the TGI (OVCAR-5 ovarian) was 31.4 µM.
